Consider five compounds from patent US20230203026A1, “PESTICIDAL COMPOSITIONS AND METHODS” (CORTEVA AGRISCIENCE LLC, priority 2017, published 2023).

As usually defined, the mortality is the share of the test organisms that died.

Assay [1] has as its system Cabbage Looper (Trichloplusia ni, TRIPNI) ("CL"). The experiment in a line: Insecticidal test for cabbage looper, 128-well diet tray assay. Particulars: Trichoplusia ni, 168 h; 50 μg/cm^2 of test compound on artificial diet; second instar CL larvae; 25° C.; five to seven days; average of eight wells; read-out: CL % Control (or Mortality) rating. The class given is in vivo. Here is the method: Insecticidal Test for Cabbage Looper (Trichloplusia ni, TRIPNI) (“CL”)
(§1) Bioassays on cabbage looper (CL; Trichloplusia ni: Lepidoptera) are conducted using a 128-well diet tray assay. One to five second instar CL larvae are placed in each well (3 mL) of the diet tray that had been previously filled with 1 mL of artificial diet to which 50 μg/cm^2 of the test compound (dissolved in 50 μL of 90:10 acetone-water mixture) had been applied (to each of eight wells) and then allowed to dry. Trays are covered with a clear self-adhesive cover, vented to allow gas exchange, and held at 25° C., 14:10 light-dark for five to seven days. Percent mortality is recorded for the larvae in each well; activity in the eight wells is then averaged.

Assay [2] relates to beet armyworm (Spodoptera exigua, LAPHEG) ("BAW"). The experiment in a line: Insecticidal test for beet armyworm, 128-well diet tray assay. The class given is in vivo. Conditions: 168 h, 50 μg/cm^2 of test compound on artificial diet, second instar BAW larvae, 25° C., five to seven days, average of eight wells, read-out: BAW % Control (or Mortality) rating. Here is the method: Insecticidal test for beet armyworm (Spodoptera exigua, LAPHEG) (“BAW”)
as §1, with “beet armyworm (BAW; Spodoptera exigua:” for “cabbage looper (CL; Trichloplusia ni:”, “BAW” for “CL”

For the compound `CC(C)c1ccc(Cl)cc1N1C(=O)CS/C1=N\C(=O)NN(C)C(C)c1ccc(-c2ncn(-c3ccc(OC(F)(F)F)cc3)n2)cc1` (stereo not shown) [A36, (Z)—N-(3-(5-Chloro-2-isopropylphenyl)-4-oxothiazolidin-2-ylidene)-2-methyl-2-(1-(4-(1-(4-(trifluoromethoxy)phenyl)-1H-1,2,4-triazol-3-yl)phenyl)ethyl)hydrazine-1-carboxamide], the mortality at 50 µg/cm2 in assay [1] and in assay [2] was 50 to 100% throughout.
As to `Cc1ccc(C(F)(F)F)c(N2C(=O)CS/C2=N\C(=O)NN(C)C(C)c2ccc(-c3ncn(-c4ccc(OC(F)(F)F)cc4)n3)cc2)c1` (stereo not shown) [A37, (Z)-2-Methyl-N-(3-(5-methyl-2-(trifluoromethyl)phenyl)-4-oxothiazolidin-2-ylidene)-2-(1-(4-(1-(4-(trifluoromethoxy)phenyl)-1H-1,2,4-triazol-3-yl)phenyl)ethyl)hydrazine-1-carboxamide], the mortality at 50 µg/cm2 in assay [1] and in assay [2] was 50 to 100% throughout.
`Cc1ccc(OCC(F)(F)F)c(N2C(=O)CS/C2=N\C(=O)NN(C)C(C)c2ccc(-c3ncn(-c4ccc(OC(F)(F)F)cc4)n3)cc2)c1` (stereo not shown) [A38, (Z)-2-Methyl-N-(3-(5-methyl-2-(2,2,2-trifluoroethoxy)phenyl)-4-oxothiazolidinylidene)-2-(1-(4-(1-(4-(trifluoromethoxy)phenyl)-1H-1,2,4-triazolyl)phenyl)ethyl)hydrazine-1-carboxamide]: the mortality at 50 µg/cm2 in assay [1] and in assay [2] was 50 to 100% in each case.
On to `Cc1ccc(C(C)C)c(N2C(=O)CS/C2=N\C(=O)ON(C)Cc2ccc(-c3ncn(-c4ccc(OC(F)(F)F)cc4)n3)cc2)c1` [A39, (Z)-3-(2-isopropyl-5-methylphenyl)-2-((((methyl(4-(1-(4-(trifluoromethoxy)phenyl)-1H-1,2,4-triazol-3-yl)benzyl)amino)oxy)carbonyl)imino)thiazolidin-4-one], for which the mortality at 50 µg/cm2 in assay [1] and in assay [2] was 50 to 100% throughout.
For the compound `Cc1ccc(C(C)C)c(N2C(=O)CS/C2=N\C(=O)ONCc2ccc(-c3ncn(-c4ccc(OC(F)(F)F)cc4)n3)cc2)c1` [A40, (Z)-3-(2-isopropyl-5-methylphenyl)-2-(((((4-(1-(4-(trifluoromethoxy)phenyl)-1H-1,2,4-triazol-3-yl)benzyl)amino)oxy)carbonyl)imino)thiazolidin-4-one], the mortality at 50 µg/cm2 in assay [1] and in assay [2] was 50 to 100% each time.
